What follows are compounds tested against T1, human TrkA (Homo sapiens, UniProt P04629) (assay: Human TrkA inhibition assay). Conditions: human TrkA phosphorylation inhibition, ATP 500 μmol/L; read-out: IC50_nM.
T1 construct: purchased Lifetechnologies PV3144
Format: biochemical
Outline: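 Human TrkA (1 nmol/L final) preincubated 15 min with compound, then FL-peptide 27 (1.5 μmol/L) and ATP (500 μmol/L) added; 120 min at 37 °C in HEPES/MgCl2/DTT buffer. Mobility-shift measurement of phosphorylated vs non-phosphorylated substrate; IC50 by logistic regression over 3-fold dilution series.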

T1 sequence (P04629 33-796): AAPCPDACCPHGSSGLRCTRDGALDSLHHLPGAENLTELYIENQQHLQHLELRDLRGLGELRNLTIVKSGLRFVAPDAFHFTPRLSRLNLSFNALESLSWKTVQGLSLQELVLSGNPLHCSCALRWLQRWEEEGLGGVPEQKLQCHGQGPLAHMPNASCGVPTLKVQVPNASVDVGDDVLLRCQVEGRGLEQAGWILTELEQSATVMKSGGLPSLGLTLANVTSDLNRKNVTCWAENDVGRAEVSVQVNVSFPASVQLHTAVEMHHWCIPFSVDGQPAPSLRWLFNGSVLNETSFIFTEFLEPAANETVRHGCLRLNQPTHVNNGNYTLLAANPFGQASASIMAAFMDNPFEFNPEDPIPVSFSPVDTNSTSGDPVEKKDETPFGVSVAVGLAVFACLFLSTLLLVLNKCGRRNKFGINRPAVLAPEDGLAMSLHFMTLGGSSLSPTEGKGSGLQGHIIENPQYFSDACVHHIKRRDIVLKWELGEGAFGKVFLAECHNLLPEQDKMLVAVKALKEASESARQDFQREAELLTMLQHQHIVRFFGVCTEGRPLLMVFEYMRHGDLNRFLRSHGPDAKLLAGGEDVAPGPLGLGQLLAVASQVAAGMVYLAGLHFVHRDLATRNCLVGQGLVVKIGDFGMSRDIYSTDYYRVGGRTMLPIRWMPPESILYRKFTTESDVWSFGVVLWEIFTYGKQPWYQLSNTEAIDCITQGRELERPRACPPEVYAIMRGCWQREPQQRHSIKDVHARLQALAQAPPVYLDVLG

IC50, < 100 nM:
COCC[C@@H]1C[C@@H](NC(=O)Nc2c(C)c(-c3cc(C(=O)NO)c(=O)n(C)c3)nn2-c2ccccc2)[C@H](c2ccccc2)C1 [Compound I-120], COCCN1C[C@@H](NC(=O)Nc2c(C)c(-c3ccnc(C(=O)NCCO)c3)nn2-c2ccccc2)[C@H](c2ccccc2)C1 (racemic) [Compound I-49], COCCN1C[C@@H](NC(=O)Nc2c(C)c(-c3ccnc(C(=O)NC[C@@H](C)O)c3)nn2-c2ccccc2)[C@H](c2ccccc2)C1 [Compound I-75], COCCN1C[C@@H](NC(=O)Nc2c(C)c(-c3cnc4c(c3)c(C(=O)OC)nn4C)nn2-c2ccccc2)[C@H](c2ccccc2)C1 (racemic) [Compound I-64], COCCN1C[C@@H](NC(=O)Nc2c(C)c(-c3ccc(C(=O)NO)nc3)nn2-c2ccccc2)[C@H](c2ccccc2)C1 (racemic) [Compound I-150], COCCN1C[C@@H](NC(=O)Nc2c(C)c(-c3ccnc(C(=O)NCC(F)(F)F)c3)nn2-c2ccccc2)[C@H](c2ccccc2)C1 (racemic) [Compound I-48], CNC(=O)c1cc(-c2nn(-c3ccccc3)c(NC(=O)N[C@@H]3CN(CCOC)C[C@H]3c3ccccc3)c2C)cn(CCOC)c1=O (racemic) [Compound I-127], COCCN1C[C@@H](NC(=O)Nc2c(C)c(-c3ccc(C(N)=O)nc3)nn2-c2ccccc2)[C@H](c2ccccc2)C1 (racemic) [Compound I-42], COCCN1C[C@@H](NC(=O)Nc2c(C)c(-c3ccnc(C(=O)N[C@@H]4CCOC4)c3)nn2-c2ccccc2)[C@H](c2ccccc2)C1 [Compound I-86], COCCN1C[C@@H](NC(=O)Nc2c(C)c(-c3ccnc(C(=O)NC4CCS(=O)(=O)CC4)c3)nn2-c2ccccc2)[C@H](c2ccccc2)C1 (racemic) [Compound I-73], CCNC(=O)c1cc(-c2nn(-c3ccccc3)c(NC(=O)N[C@@H]3CN(CCOC)C[C@H]3c3ccccc3)c2C)cn(CCOC)c1=O (racemic) [Compound I-133], CNC(=O)c1cc(-c2nn(-c3ccccc3)c(NC(=O)N[C@@H]3CN(CCOC)C[C@H]3c3ccccc3)c2C)cnc1OCCO (racemic) [Compound I-123], CCNC(=O)c1cc(-c2nn(-c3ccccc3)c(NC(=O)N[C@@H]3CN(CCOC)C[C@H]3c3ccccc3)c2C)cnc1OC (racemic) [Compound I-55], COCCN1C[C@@H](NC(=O)Nc2c(C)c(-c3cnc(OC)c(C(=O)N[C@H]4CCOC4)c3)nn2-c2ccccc2)[C@H](c2ccccc2)C1 [Compound I-80], COCCN1C[C@@H](NC(=O)Nc2c(C)c(-c3ccnc(C(N)=O)c3)nn2-c2ccccc2)[C@H](c2ccccc2)C1 (racemic) [Compound I-44], CNC(=O)c1cc(-c2nn(-c3ccccc3)c(NC(=O)N[C@@H]3CN(CCOC)C[C@H]3c3ccccc3)c2C)cnc1OCCOC (racemic) [Compound I-124], COCC[C@@H]1C[C@@H](NC(=O)Nc2c(C)c(-c3cc(C(=O)OC)c(=O)n(C)c3)nn2-c2ccccc2)[C@H](c2ccccc2)C1 [Compound I-116], COCCN1C[C@@H](NC(=O)Nc2c(C)c(-c3cc(C(=O)NC4CCS(=O)(=O)CC4)c(=O)n(C)c3)nn2-c2ccccc2)[C@H](c2ccccc2)C1 (racemic) [Compound I-110], CCNC(=O)c1cc(-c2nn(-c3ccccc3)c(NC(=O)N[C@@H]3CN(CCOC)C[C@H]3c3ccccc3)c2C)cnc1OCC (racemic) [Compound I-129], CNC(=O)c1ncc(-c2nn(-c3ccccc3)c(NC(=O)N[C@@H]3CN(CCOC)C[C@H]3c3ccccc3)c2C)cc1C (racemic) [Compound I-61]

Same assay, conditions: human TrkA phosphorylation inhibition, ATP 500 μmol/L; read-out: IC50 value

IC50, 6.8 nM:
COCCN1C[C@@H](NC(=O)Nc2c(C)c(-c3ccnc(C(=O)NOC)c3)nn2-c2ccccc2)[C@H](c2ccccc2)C1 (racemic) [Compound I-100]

IC50, 1 nM:
COCCN1C[C@@H](NC(=O)Nc2c(C)c(-c3cnc4c(cnn4C)c3)nn2-c2ccccc2)[C@H](c2ccnc(F)c2)C1 [Compound I-159]
